In US20240293430A1, “WITHAFERIN A AND IMMUNE CHECKPOINT BLOCKER COMBINATION THERAPIES” (University of South Florida, priority 2023, published 2024):

Assays:
[1] = test system: secreted HMGB-1 from LLC cells; test: HMGB-1 ELISA of supernatants; format: cell-based, mouse; settings: 0.6 μM WFA, 48 h
Experimental: Cells were treated with WFA for 48 h then collected using Accutase cell detachment solution. […] (FIG. 2E) Bone marrow-derived DC were co-cultured with WFA-pretreated LLC cells (24 h) in a ratio 5:1 of DC:LLC cells for 24 h.
LLC cells were plated and treated with WFA or doxorubicin (ICD inducer) for 48 h. Supernatants were collected and centrifuged at 1000 RPM for 10 min. The levels of secreted HMGB-1 were measured using the HMGB-1 detection ELISA kit (Chondrex, 6010, Woodinville, WA, USA) according to the manufacturer's protocol.

[2] = test system: PD-L1 expression in LLC, H1650, and A549 cell lines; test: PD-L1 expression in NSCLC cell lines (flow cytometry, qRT-PCR, western blot); format: cell-based, mouse (LLC), human (H1650
Experimental: FIGS. 3A-3F depict that WFA upregulates PD-L1 surface expression in NSCLC cell lines. Cells were treated with WFA for 48 h. (FIGS. 3A, 3C, 3E) PD-L1 surface expression determined using flow cytometry LLC (FIG. 3A), H1650 (FIG. 3C), and A549 (FIG. 3E). (FIGS. 3B, 3D, 3F) PD-L1 expression was measured using qRT-PCR LLC (FIG. 3B), H1650 (FIG. 3D), A549 (FIG. 3F). PCR experiments were repeated twice and the mean±SEM of the technical replicates are represented. For the rest, the means of two independent experiments ±SEM are shown, and statistical significance was calculated using one-way ANOVA and a Fisher LSD post hoc test where * is p<0.05, ** is p<0.01, and **** is p <0.0001.
FIGS. 8A-8G depict that WFA induced ICD and PD-L1 upregulation in colorectal cancer cell lines. WFA increased the levels of ecto-CRT in the murine colorectal cancer cell line (FIG. 8A) MC-38 and human cell line (FIG. 8B) HCT-116. WFA increased the expression of PD-L1 in both (FIG. 8C) MC-38 and (FIG. 8D) HCT-116 cells. […] H1650 cells (at a higher density) were treated with a higher concentration of WFA (2 and 4 μM) to facilitate cell collection and protein isolation. The band density was quantified using Image J software and normalized to the housekeeping protein. The fold change from untreated control was averaged from two independent experiments ±SEM and one-way ANOVA was used to calculate the statistical significance. A Fisher LSD post hoc test was performed to compare the treatments to the control in (FIG. 8E) LLC, (FIG. 8F) H1650, (FIG. 8G) A549 cells. * p<0.05, ** p<0.01, *** p<0.001, **** p<0.0001. […]
Total cellular RNA was isolated from collected cell pellets using TRIzol reagent (Invitrogen, Waltham, MA, USA) and then quantified using the 2000 Nanodrop spectrophotometer (Thermo Fisher Scientific, Waltham, MA, USA). cDNA synthesis was performed using the Verso cDNA synthesis kit (Thermo Fisher Scientific, Waltham, MA, USA). qPCR was then performed using Forget-Me-Not EvaGreen qPCR Master Mix (Biotium, Fremont, CA, USA) in a Bio-Rad CFX384 thermocycler according to the manufacturer's instructions. […]

[3] = test system: PD-L1 upregulation in MC-38, HCT-116, 4T-1, and MDA-MB-231 cell lines; test: PD-L1 with WFA and NAC in colorectal and breast cancer cell lines; format: cell-based, mouse (MC-38, 4T1), human (HCT-116; settings: breast cancer cell lines (4T1 1 μM, MDA-MB-231 2 μM WFA)
[4] = test system: immunosuppressive MDSC population; settings: mouse, in vivo; cited from earlier work

Compound: CC1=C(CO)C(=O)O[C@@H]([C@@H](C)[C@H]2CC[C@H]3[C@@H]4C[C@H]5O[C@]56[C@@H](O)C=CC(=O)[C@]6(C)[C@H]4CC[C@]23C)C1 [WFA, Withaferin A]
- HMGB-1 levels secreted in the supernatants [1]: increased
- PD-L1 surface expression ([2]; flow cytometry, 48 h, LLC, H1650, A549): consistently increased
- PD-L1 expression (mRNA) ([2]; qRT-PCR): induced
- PD-L1 expression (protein) ([2]; western blotting): induced
- PD-L1 expression [3]: increases
- MDSC tumor infiltration and immunosuppressive function [4]: reducing
